Source: patent publication US20220039395A1, “INSECT CONTROL AGENTS” (priority 2018, published 2022)
Entries after “also recorded” stand apart in the source; their conditions may differ. Square brackets hold non-standard residues; d marks the D form. Aib = CC(C)(N)C(=O)O

Experiments:
[1] = tested on: Myzus persicae; assay: Desiccation/starvation tolerance assay after peptide microinjection; assay type: in vivo; conditions: Myzus persicae, microinjection; for Documented effect on desiccation/starvation mortality: final concentration ×10^−5 M, relative to vehicle control; for LTime50 (h), test / Median ± IQR survival (h), test: ×10^−5 M, desiccation and starvation stress, test group
Description: (§1) Neuropeptides were administered to test aphids via microinjection to allow for rapid mass screening of neuropeptide analogue efficacy. For this, native neuropeptides were diluted in double distilled water (DDH2O) to a concentration of 1×10^−5 M. Neuropeptide analogues were diluted in DDH2O to the following concentrations: kinin analogues 1728 (2.5×10^−5 M), 2139 (3.5×10^−5 M), 2139-Ac (3.5×10^−5 M); CAP2b analogues 1895 (3.5×10^−5 M), 1896 (3.5×10^−5 M), 1902 (3.5×10^−5 M), 2089 (3.9×10^−5 M), 2123 (1.0×10^−5 M), 2125 (1.0×10^−5 M), 2129 (2.0×10^−5 M). Once at the desired concentration, neuropeptide solutions were administered to test aphids at an injection volume of 9 nl based on total haemolymph volume, to produce an approximate 1:20 dilution of injection volume to haemolymph. Injections were performed using a pulled glass needle and a Nanoject II Auto-Nanoliter Injector (Drummond Scientific Company, Broomall, Pa.). A vehicle control was set up for each treatment/day of experiments to account for variation in needle pulling. For this, control aphids were injected with 9 nl of DDH2O and subsequently exposed to the same experiments as aphids receiving the neuropeptide treatment. Neuropeptide treated and vehicle control aphids were subsequently used in the stress bioassays detailed below.
(§2) Anholocyclic adults of mixed age of either M. persicae or M. rosae were selected from the stock cultures and treated with a native neuropeptide or neuropeptide analogue via microinjection using the method detailed above. Treated and vehicle control aphids were allowed to recover on excised leaves of the host plant for 1 h before being placed in an empty ventilated microcage (L=4 cm, 0=9.5 cm) at densities of 10 per cage. In total, 30-40 aphids were treated for each neuropeptide treatment group and a further 30-40 for the associated vehicle control group. From the point of placement in the microcage (taken as 0 h), aphid survival was checked every hour during daylight hours and approximately every 4 h during night-time hours until the final aphid died. Survival data were subsequently analysed using a Log-rank (Mantel-Cox) text in GraphPad Prism version 7.0. LTime50 (the time taken to kill 50% of the test population) values were calculated via Probit Analysis in Minitab 17 (Minitab Inc., State College, Pa.).

[2] = tested on: Macrosiphum rosae; assay: as above; assay type: in vivo; conditions: Macrosiphum rosae, microinjection; for Documented effect on desiccation/starvation mortality: final concentration ×10^−5 M, relative to vehicle control; for LTime50 (h), test / Median IQR survival (h), test: ×10^−5 M, desiccation and starvation stress, test group
Description: as §1, §2

[3] = tested on: M. persicae; assay: Topical application under desiccation/starvation conditions; assay type: in vivo, Myzus persicae; conditions: data not shown
Description: For peptides 2315, 2320 and 2125, peptides were diluted individually in an Armid FMPC formulation (AkzoNobel Surface Chemistry, Stenungsund, Sweden) to concentration of 1×10^−5 M. Using a Nanoject II Auto-Nanoliter micro-injector, 9 nl of the peptide solution was applied topically to the abdomen of a pre-reproductive adult aphid, coating the cuticle in the solution. Aphids were returned to the host plant and allowed to recover for 24 h before use in experiments. Control aphids were topically applied with 9 nl of the Armid FMPC formulation and, once again, allowed to recover for 24 h on the host plant before use in experiments.
as §2, with “In total, 30-40 aphids were treated for each neuropeptide treatment group and a further 30-40 for the associated vehicle control group. From the point of placement in the microcage (taken as 0 h), aphid survival was checked every hour during daylight hours and approximately every 4 h during night-time hours until the final aphid died.” left out

[4] = tested on: Myzus persicae; assay: Cold tolerance bioassay at the discriminating temperature after microinjection; assay type: in vivo; conditions: M. persicae, 1 h at −9.7° C., survival assessed after 48 h, vs control
Description: Neuropeptides were administered to test aphids via microinjection to allow for rapid mass screening of neuropeptide analogue efficacy. For this, native neuropeptides were diluted in double distilled water (DDH2O) to a concentration of 1×10^−5 M. Neuropeptide analogues were diluted in DDH2O to the following concentrations: kinin analogues 1728 (2.5×10^−5 M), 2139 (3.5×10^−5 M), 2139-Ac (3.5×10^−5 M); CAP2b analogues 1895 (3.5×10^−5 M), 1896 (3.5×10^−5 M), 1902 (3.5×10^−5 M), 2089 (3.9×10^−5 M), 2123 (1.0×10^−5 M), 2125 (1.0×10^−5 M), 2129 (2.0×10^−5 M). […]
For this reason, and given its global pest status, only M. persicae was taken forward in cold stress assays. […] Following exposure, aphids were allowed to recover at the culture temperature in microcages containing excised leaves of the host plant and survival was assessed after 48 h. […]
Survival data were analysed using Probit analysis in MINITAB, version 17 (Minitab Inc., State College, Pa.) and the LT30 (the lethal temperature resulting in 30% mortality of a test population) was elucidated.
Pre-reproductive anholocyclic adult aphids of M. persicae were treated with neuropeptide analogues using the microinjection method detailed above. […] Following exposure, adults were allowed to recover at the culture temperature in microcages containing excised leaves of the host plant and survival was assessed after 48 h. […]

Substance	Documented effect on desiccation/starvation mortality [1]	LTime50 (h), test [1]	Median ± IQR survival (h), test [1]	Documented effect on desiccation/starvation mortality [2]	LTime50 (h), test [2]	Median IQR survival (h), test [2]	effect on mortality [3]	Effect on survival/mortality under cold stress [4]
2Abf-Suc-FT[Oic]RV-NH2 [compound 2125]	non-significant survival curves; also recorded: No effect	10.8 | 13.0 h	11.0 ± 12.0 | 11.0 ± 12.0 h	non-significant survival curves; also recorded: No effect	21.6 | 20.1 h	24.0 ± 9.25 | 20.5 ± 18.0 h	significantly increased mortality	–
Ac-FF[Aib]WG-NH2 [2139-AC, reference compound]	No effect	19.4 | 16.7 h	22.5 ± 19.8 | 20.0 ± 14.0 h	No effect	44.0 | 40.1 h	39.0 ± 37.0 | 35.0 ± 32.0 h	–	acting to increase survival relative to the control
